{"source": "patent US20220387325A1", "about": "“METHOD FOR MANUFACTURING DISPERSION OF ULTRAFINE PARTICLES OF POORLY SOLUBLE SUBSTANCE” (NANO CUBE JAPAN CO., LTD., priority 2019, published 2022)", "key": {"physchem [1]": {"experiment": "physchem", "details": "for solubility at 1 h: water, thermodynamic from solid", "experimental": "To 100 mL of the liquid thus obtained, 100 mL of water was added and acetone was distilled off by concentration under reduced pressure to obtain a water dispersion of ultrafine particles of coenzyme Q10.\n(§1) To 100 mL of the liquid thus obtained, 100 mL of water was added and acetone was distilled off by concentration under reduced pressure to obtain a water dispersion of ultrafine particles of busulfan. […] The solubility was measured in the same manner as in Example 1, except that busulfan was used in place of coenzyme Q10.\nas §1, with “ethanol” for “acetone”, “docetaxel.” for “busulfan.”, “docetaxel” for “busulfan”\nas §1, with “ethanol” for “acetone”, “paclitaxel.” for “busulfan.”, “paclitaxel” for “busulfan”\nTo 100 mL of the liquid thus obtained, 100 mL of water was added and ethanol was distilled off by concentration under reduced pressure to obtain a water dispersion of ultrafine particles of azadirachtin.\nTo 100 mL of the liquid thus obtained, 100 mL of 1-butanol was added and water was distilled off by concentration under reduced pressure to obtain a 1-butanol dispersion of ultrafine particles of ascorbic acid."}, "[2]": {"experiment": "Solubility in good solvent", "details": "for solubility: organic solvent or mixture"}, "physchem [3]": {"experiment": "physchem", "details": "25 °C, organic solvent or mixture"}}, "data": [{"smiles": "CS(=O)(=O)OCCCCOS(C)(=O)=O", "note": "[busulfan]", "values": [{"measurement": "solubility at 1 h", "setting": "physchem [1]; 25 °C", "value": "≤ 0.01", "unit": "mg/mL"}, {"measurement": "solubility", "setting": "[2]; acetone, 50 °C", "value": "≥ 30", "unit": "mg/mL"}]}, {"smiles": "CC(=O)O[C@H]1C(=O)[C@@]2(C)[C@H]([C@H](OC(=O)c3ccccc3)[C@]3(O)C[C@H](OC(=O)[C@H](O)[C@@H](NC(=O)c4ccccc4)c4ccccc4)C(C)=C1C3(C)C)[C@]1(OC(C)=O)CO[C@@H]1C[C@@H]2O", "note": "[paclitaxel]", "values": [{"measurement": "solubility at 1 h", "setting": "physchem [1]; 25 °C", "value": "≤ 0.01", "unit": "mg/mL"}, {"measurement": "solubility", "setting": "[2]; ethanol, 25 °C", "value": "≥ 30", "unit": "mg/mL"}]}, {"smiles": "COC1=C(OC)C(=O)C(C/C=C(\\C)CC/C=C(\\C)CC/C=C(\\C)CC/C=C(\\C)CC/C=C(\\C)CC/C=C(\\C)CC/C=C(\\C)CC/C=C(\\C)CC/C=C(\\C)CCC=C(C)C)=C(C)C1=O", "note": "[coenzyme Q10]", "values": [{"measurement": "solubility in water", "setting": "physchem [1]", "value": "≤ 0.01", "unit": "mg/mL"}, {"measurement": "solubility in acetone", "setting": "[2]; acetone, 25° C.", "value": "≥ 30", "unit": "mg/mL"}]}, {"smiles": "CC(=O)O[C@@]12CO[C@@H]1C[C@H](O)[C@@]1(C)C(=O)[C@H](O)C3=C(C)[C@@H](OC(=O)[C@H](O)[C@@H](NC(=O)OC(C)(C)C)c4ccccc4)C[C@@](O)([C@@H](OC(=O)c4ccccc4)[C@H]21)C3(C)C", "note": "[docetaxel]", "values": [{"measurement": "solubility at 1 h", "setting": "physchem [1]; 25 °C", "value": "≤ 0.01", "unit": "mg/mL"}, {"measurement": "solubility", "setting": "[2]; ethanol, 60 °C", "value": "≥ 20", "unit": "mg/mL"}]}, {"smiles": "C/C=C(\\C)C(=O)O[C@H]1C[C@@H](OC(C)=O)[C@@]2(C(=O)OC)CO[C@H]3[C@@H](O)[C@@](C)([C@]45O[C@@]4(C)[C@H]4C[C@@H]5O[C@@H]5OC=C[C@@]54O)[C@H]4[C@]1(CO[C@]4(O)C(=O)OC)[C@@H]32", "note": "[azadirachtin]", "values": [{"measurement": "solubility at 1 h", "setting": "physchem [1]; 20 °C", "value": "≤ 0.1", "unit": "mg/mL"}, {"measurement": "solubility", "setting": "physchem [3]", "value": "≥ 30", "unit": "mg/mL"}]}]}
